{"source": "patent US20240342150A1", "about": "(priority 2021, published 2024)", "key": {"SARS-CoV-2 (Wuhan)": {"system": "SARS-CoV-2 (Wuhan)", "assay": "microbe, parasite or virus in culture", "assay_type": "cell-based", "details": "Severe acute respiratory syndrome coronavirus 2, Vero C1008"}, "Vero E6 cells": {"system": "Vero E6 cells", "details": "for % viable cells: not infected Vero E6 cells"}}, "note": "pIC50: −log10 of the molar value. Read-outs that look alike come from different tables or passages of the source."}
{"molecule": "O=C(c1ccc(OCCN2CCCCC2)cc1)c1c(-c2ccc(O)cc2)sc2cc(O)ccc12", "note": "[Raloxifene, 1-[6-hydroxy-2-(4-hydroxyphenyl)benzo[b]thien-3-yl]-1-[4-[2-(1-piperidinyl)ethoxy]phenyl]methanone]", "values": [{"measurement": "pIC50", "setting": "SARS-CoV-2 (Wuhan)", "result": 5.23}, {"measurement": "% viable cells", "setting": "Vero E6 cells; Raloxifene 0.23 μM, 48 h", "result": 100, "unit": "%"}, {"measurement": "% viable cells", "setting": "Vero E6 cells; Raloxifene 0.23 μM, 72 h", "result": 102, "unit": "%"}, {"measurement": "% viable cells", "setting": "Vero E6 cells; Raloxifene 0.46 μM, 48 h", "result": 95, "unit": "%"}, {"measurement": "% viable cells", "setting": "Vero E6 cells; Raloxifene 0.46 μM, 72 h", "result": 95, "unit": "%"}, {"measurement": "% viable cells", "setting": "Vero E6 cells; Raloxifene 0.94 μM, 48 h", "result": 95, "unit": "%"}, {"measurement": "% viable cells", "setting": "Vero E6 cells; Raloxifene 0.94 μM, 72 h", "result": 96, "unit": "%"}, {"measurement": "% viable cells", "setting": "Vero E6 cells; Raloxifene 1.87 μM, 48 h", "result": 99, "unit": "%"}, {"measurement": "% viable cells", "setting": "Vero E6 cells; Raloxifene 1.87 μM, 72 h", "result": 97, "unit": "%"}, {"measurement": "% viable cells", "setting": "Vero E6 cells; Raloxifene 3.75 μM, 48 h", "result": 93, "unit": "%"}, {"measurement": "% viable cells", "setting": "Vero E6 cells; Raloxifene 3.75 μM, 72 h", "result": 96, "unit": "%"}, {"measurement": "% viable cells", "setting": "Vero E6 cells; Raloxifene 7.5 μM, 48 h", "result": 92, "unit": "%"}, {"measurement": "% viable cells", "setting": "Vero E6 cells; Raloxifene 7.5 μM, 72 h", "result": 97, "unit": "%"}, {"measurement": "% viable cells", "setting": "Vero E6 cells; Raloxifene 15 μM, 48 h", "result": 86, "unit": "%"}, {"measurement": "% viable cells", "setting": "Vero E6 cells; Raloxifene 15 μM, 72 h", "result": 76, "unit": "%"}, {"measurement": "effect on cell viability", "setting": "Vero E6 cells; Raloxifene 15 μM, crystal violet staining", "result": "reduced percentage of viable cells"}, {"measurement": "effect on cell viability", "setting": "Vero E6 cells; lower drug concentrations (7.5 to 0.23 μM)", "result": "No significant effect on cell viability"}]}
